Here are results for 16 compounds from ChEMBL document CHEMBL4665770, “Design and Discovery of Natural Cyclopeptide Skeleton Based Programmed Death Ligand 1 Inhibitor as Immune Modulator for Cancer Therapy” (J Med Chem, 2020).

pIC50: −log10 of the molar value. Square brackets hold non-standard residues; d marks the D form. Peptide text beside a SMILES is read from it. Orn = NCCC[C@H](N)C(=O)O

The target of experiment [1] is Programmed cell death protein 1/Programmed cell death 1 ligand 1 (Homo sapiens, UniProt Q9NZQ7). The experiment is described as follows: Inhibition of PD1-Tag2/PD-L1-Tag1 (unknown origin) protein-protein interaction preincubated for 15 mins followed by addition of anti-Tag1-Eu3+ and anti-Tag2-XL665 measured after 3 hrs by HTRF assay. In kind it is protein-complex assay.

Experiment [2] concerns the target Programmed cell death protein 1/Programmed cell death 1 ligand 1 (Homo sapiens) (UniProt Q15116+Q9NZQ7). Kind of experiment: Inhibition of PD1-Tag2/PD-L1-Tag1 (unknown origin) protein-protein interaction at 20 uM preincubated for 15 mins followed by addition of anti-Tag1-Eu3+ and anti-Tag2-XL665 measured after 3 hrs by HTRF assay relative to control. The following applies: time 195.0 min. In kind it is protein-complex assay. (In general: In TR-FRET formats the signal depends on donor and acceptor labels being close together.)

Chain of Programmed cell death protein 1/Programmed cell death 1 ligand 1 (Q15116 whole entry): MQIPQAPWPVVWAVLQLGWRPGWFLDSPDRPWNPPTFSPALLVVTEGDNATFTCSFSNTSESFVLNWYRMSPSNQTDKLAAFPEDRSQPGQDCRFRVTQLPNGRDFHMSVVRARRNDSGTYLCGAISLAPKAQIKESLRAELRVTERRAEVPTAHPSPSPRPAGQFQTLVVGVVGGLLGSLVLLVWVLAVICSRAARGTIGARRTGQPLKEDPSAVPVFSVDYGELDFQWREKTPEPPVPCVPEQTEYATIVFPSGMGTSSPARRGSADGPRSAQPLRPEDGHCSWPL
Chain of Programmed cell death protein 1/Programmed cell death 1 ligand 1 (Q9NZQ7 whole entry): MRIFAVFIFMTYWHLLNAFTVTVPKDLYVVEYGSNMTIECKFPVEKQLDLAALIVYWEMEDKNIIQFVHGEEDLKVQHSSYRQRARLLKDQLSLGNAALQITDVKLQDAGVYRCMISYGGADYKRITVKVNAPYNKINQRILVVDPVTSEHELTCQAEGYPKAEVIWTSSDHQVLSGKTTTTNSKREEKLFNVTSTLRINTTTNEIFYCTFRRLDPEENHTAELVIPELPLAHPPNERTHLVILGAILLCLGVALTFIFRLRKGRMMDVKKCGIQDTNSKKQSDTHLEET

What is called pIC50 is the negative decadic logarithm of the IC50, by convention in mol/L. Usually inhibition stands for the relative decrease from the control value, in per cent. Regarding `CC(C)C[C@@H]1NC(=O)[C@H](CC(=O)O)NC(=O)[C@H]([C@@H](C)O)NC(=O)[C@@H]2CCCN2C(=O)[C@@H](Cc2ccccc2)NC(=O)[C@H](CC(C)C)NC(=O)[C@H](CCCNC(=N)N)NC(=O)[C@H](C(C)C)NC(=O)[C@@H]2CCCN2C(=O)[C@@H](Cc2ccccc2)NC1=O`, the negative-log IC50 (pIC50) in experiment [1] was 5.20. Also, the inhibition in experiment [2] was determined as 72.4%.
As to `CC(C)C[C@@H]1NC(=O)[C@H](CCCNC(=N)N)NC(=O)[C@H](C(C)C)NC(=O)[C@@H]2CCCN2C(=O)[C@@H](Cc2ccccc2)NC(=O)[C@H](CC(C)C)NC(=O)[C@H](CC(=O)O)NC(=O)[C@H](C)NC(=O)[C@@H]2CCCN2C(=O)[C@@H](Cc2ccccc2)NC1=O`, the pIC50 in experiment [1] is 5.09. Also, the inhibition in experiment [2] amounted to 66.4%.
In the same order, the values of `CCCC[C@@H]1NC(=O)[C@H](CC(=O)O)NC(=O)[C@H]([C@@H](C)O)NC(=O)[C@@H]2CCCN2C(=O)[C@@H](Cc2c[nH]c3ccccc23)NC(=O)[C@H](CC(C)C)NC(=O)[C@H](CCCNC(=N)N)NC(=O)[C@H](C(C)C)NC(=O)[C@@H]2CCCN2C(=O)[C@@H](Cc2ccccc2)NC1=O` are 5.30 and 82.1%.
As to `CC(C)C[C@@H]1NC(=O)[C@H](CC(=O)O)NC(=O)[C@H](C(C)C)NC(=O)[C@@H]2CCCN2C(=O)[C@@H](Cc2ccccc2)NC(=O)[C@H](CC(C)C)NC(=O)[C@H](CCCNC(=N)N)NC(=O)[C@H](C(C)C)NC(=O)[C@@H]2CCCN2C(=O)[C@@H](Cc2ccccc2)NC1=O`, in experiment [1], the pIC50 was 5.02. Besides, the inhibition in experiment [2] came to 57.3%.
`CC[C@H](C)[C@@H]1NC(=O)[C@H](CC(=O)O)NC(=O)[C@H]([C@@H](C)O)NC(=O)[C@@H]2CCCN2C(=O)[C@@H](Cc2c[nH]c3ccccc23)NC(=O)[C@H](CC(C)C)NC(=O)[C@H](CCCNC(=N)N)NC(=O)[C@H]([C@@H](C)CC)NC(=O)[C@@H]2CCCN2C(=O)[C@@H](Cc2ccccc2)NC1=O`: the negative-log IC50 (pIC50) in experiment [1] is 5.27. In experiment [2], the inhibition turned out to be 80.4%.
In the same order, the values of `CC(C)C[C@@H]1NC(=O)[C@H](CCCNC(=N)N)NC(=O)[C@H](C(C)C)NC(=O)[C@@H]2CCCN2C(=O)[C@@H](Cc2ccccc2)NC(=O)[C@H](C)NC(=O)[C@H](CC(=O)O)NC(=O)[C@H](C)NC(=O)[C@@H]2CCCN2C(=O)[C@@H](Cc2ccccc2)NC1=O` are 4.56 and 51.9%.
The like results for `CC(C)C[C@@H]1NC(=O)[C@H](CC(=O)O)NC(=O)[C@H](C(C)C)NC(=O)[C@@H]2CCCN2C(=O)[C@@H](Cc2c[nH]c3ccccc23)NC(=O)[C@H](CC(C)C)NC(=O)[C@H](CCCNC(=N)N)NC(=O)[C@H](C(C)C)NC(=O)[C@@H]2CCCN2C(=O)[C@@H](Cc2ccccc2)NC1=O` were, in that order, 5.13 and 66.8%.
`CC(C)C[C@@H]1NC(=O)[C@H](CC(=O)O)NC(=O)[C@H]([C@@H](C)O)NC(=O)[C@@H]2CCCN2C(=O)[C@@H](Cc2ccccc2)NC(=O)[C@H](CC(C)C)NC(=O)[C@H](CCCNC(=N)N)NC(=O)[C@H](C(C)C)NC(=O)[C@@H]2CCCN2C(=O)[C@@H](Cc2ccc(O)cc2)NC1=O` (cyclo(DL[dY]PVRL[dF]PT)): in experiment [2], the inhibition worked out at 18.7%.
Still for that read-out and setting: the value for `CC(C)C[C@@H]1NC(=O)[C@H](CCCNC(=N)N)NC(=O)[C@H](C(C)C)NC(=O)[C@@H]2CCCN2C(=O)[C@@H](Cc2ccccc2)NC(=O)[C@H](CC(C)C)NC(=O)[C@H](CCCNC(=N)N)NC(=O)[C@H](C(C)C)NC(=O)[C@@H]2CCCN2C(=O)[C@@H](Cc2ccccc2)NC1=O` (cyclo(L[dF]PVRL[dF]PVR)) was -5.54%; that for `CC(C)C[C@@H]1NC(=O)[C@H](CC(=O)O)NC(=O)[C@H]([C@@H](C)O)NC(=O)[C@@H]2CCCN2C(=O)[C@@H](Cc2ccccc2)NC(=O)[C@H](CC(C)C)NC(=O)[C@H](CCCCN)NC(=O)[C@H](C(C)C)NC(=O)[C@@H]2CCCN2C(=O)[C@@H](Cc2ccccc2)NC1=O` (cyclo(DL[dF]PVKL[dF]PT)) was 3.52%; that for `CC(NCCCC[C@@H]1NC(=O)[C@@H]2CCCN2C(=O)[C@@H](Cc2ccccc2)NC(=O)[C@H](CC(C)C)NC(=O)[C@H](CC(=O)O)NC(=O)[C@H]([C@@H](C)O)NC(=O)[C@@H]2CCCN2C(=O)[C@@H](Cc2c[nH]c3ccccc23)NC(=O)[C@H](CC(C)C)NC(=O)[C@H](CCCNC(=N)N)NC1=O)=C1C(=O)CC(C)(C)CC1=O` was 13.1%.
Consider `CC(C)C[C@@H]1NC(=O)[C@H](CC(=O)O)NC(=O)[C@H]([C@@H](C)O)NC(=O)[C@@H]2CCCN2C(=O)[C@@H](Cc2ccccc2)NC(=O)[C@H](CC(C)C)NC(=O)[C@H](CCC(N)=O)NC(=O)[C@H](C(C)C)NC(=O)[C@@H]2CCCN2C(=O)[C@@H](Cc2ccccc2)NC1=O` (cyclo(DL[dF]PVQL[dF]PT)), for which, in experiment [2], the inhibition worked out at 47.5%.
Turning to `CC(C)C[C@@H]1NC(=O)[C@H](CCCN)NC(=O)[C@H](C(C)C)NC(=O)[C@@H]2CCCN2C(=O)[C@@H](Cc2ccccc2)NC(=O)[C@H](CC(C)C)NC(=O)[C@H](CCCN)NC(=O)[C@H](C(C)C)NC(=O)[C@@H]2CCCN2C(=O)[C@@H](Cc2ccccc2)NC1=O` (cyclo(V[Orn]L[dF]PV[Orn]L[dF]P)), the inhibition in experiment [2] was 6.86%.
Take `CC(NCCCC[C@@H]1NC(=O)[C@@H](Cc2ccccc2)NC(=O)[C@H](CC(C)C)NC(=O)[C@H](CC(=O)O)NC(=O)[C@H](C(C)C)NC(=O)[C@@H]2CCCN2C(=O)[C@@H](Cc2c[nH]c3ccccc23)NC(=O)[C@H](CC(C)C)NC(=O)[C@H](CCCNC(=N)N)NC(=O)[C@H](C(C)C)NC1=O)=C1C(=O)CC(C)(C)CC1=O`: the inhibition in experiment [2] is 3.86%.
As for `CC(NCCCC[C@@H]1NC(=O)[C@@H](Cc2ccccc2)NC(=O)[C@H](CC(C)C)N(C)C(=O)[C@H](CC(=O)O)NC(=O)[C@H]([C@@H](C)O)NC(=O)[C@@H]2CCCN2C(=O)[C@@H](Cc2c[nH]c3ccccc23)NC(=O)[C@H](CC(C)C)NC(=O)[C@H](CCCNC(=N)N)NC(=O)[C@H](C(C)C)NC1=O)=C1C(=O)CC(C)(C)CC1=O`, the inhibition in experiment [2] was 19.5%.
In the case of `CC(C)C[C@@H]1NC(=O)[C@H](CCCNC(=N)N)NC(=O)[C@H](C(C)C)NC(=O)[C@@H]2CCCN2C(=O)[C@H](CC(=O)O)NC(=O)[C@@H](Cc2ccccc2)NC(=O)[C@H](CC(C)C)NC(=O)[C@H]([C@@H](C)O)NC(=O)[C@@H]2CCCN2C(=O)[C@@H](Cc2ccccc2)NC1=O` (cyclo(DPVRL[dF]PTL[dF])), the inhibition in experiment [2] was -0.905%.
